Results published in ChEMBL document CHEMBL1909046, “DrugMatrix in vitro pharmacology data”.

Legend:
[1] = molecular target: Prostaglandin G/H synthase 1 (Homo sapiens, UniProt P23219); experiment: biochemical; type: tissue-based, Platelet; conditions: platelet;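 also: inhibition of COX-1 enzyme activity, with arachidonic acid supplied as substrate; in other assays of this panel Not Active means under 50% inhibition at 10 µM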
Leukotriene C4 synthase = molecular target: T1, Leukotriene C4 synthase (Cavia porcellus, UniProt A6XA80); experiment: biochemical; type: tissue-based, Lung;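 also: enzyme inhibition assay of leukotriene C4 synthase, using LTA4 as the substrate; in other assays of this panel Not Active means under 50% inhibition at 10 µM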
T1 sequence (A6XA80 whole entry): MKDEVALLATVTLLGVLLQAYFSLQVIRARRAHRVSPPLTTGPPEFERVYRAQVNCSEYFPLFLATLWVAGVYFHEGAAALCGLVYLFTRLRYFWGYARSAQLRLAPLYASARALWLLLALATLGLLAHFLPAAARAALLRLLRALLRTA

Cytochrome P450 2D6 = Cytochrome P450 2D6 (Homo sapiens, UniProt P10635); conditions: bti-tn-5b1-4; also: in other assays of this panel Not Active means under 50% inhibition at 10 µM
Cytochrome P450 2D6, sequence (P10635 whole entry): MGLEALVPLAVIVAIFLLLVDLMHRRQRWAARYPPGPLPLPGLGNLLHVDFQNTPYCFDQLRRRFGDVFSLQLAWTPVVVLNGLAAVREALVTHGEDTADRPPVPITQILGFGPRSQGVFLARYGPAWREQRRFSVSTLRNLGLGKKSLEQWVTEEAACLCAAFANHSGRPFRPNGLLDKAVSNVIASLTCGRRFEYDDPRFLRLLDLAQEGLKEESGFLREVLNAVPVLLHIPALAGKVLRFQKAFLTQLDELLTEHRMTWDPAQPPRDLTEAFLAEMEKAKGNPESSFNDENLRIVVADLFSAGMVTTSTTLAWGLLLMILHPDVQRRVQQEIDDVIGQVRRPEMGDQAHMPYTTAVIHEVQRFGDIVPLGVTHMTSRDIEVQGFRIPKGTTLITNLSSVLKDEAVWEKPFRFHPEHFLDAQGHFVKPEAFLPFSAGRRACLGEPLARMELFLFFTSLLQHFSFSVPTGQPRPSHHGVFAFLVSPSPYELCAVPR

B2 bradykinin receptor = molecular target: T2, B2 bradykinin receptor (Homo sapiens, UniProt P30411); type: cell membranes, Membrane; conditions: chem-1; also: in other assays of this panel Not Active means under 50% inhibition at 10 µM
T2 sequence (P30411 whole entry): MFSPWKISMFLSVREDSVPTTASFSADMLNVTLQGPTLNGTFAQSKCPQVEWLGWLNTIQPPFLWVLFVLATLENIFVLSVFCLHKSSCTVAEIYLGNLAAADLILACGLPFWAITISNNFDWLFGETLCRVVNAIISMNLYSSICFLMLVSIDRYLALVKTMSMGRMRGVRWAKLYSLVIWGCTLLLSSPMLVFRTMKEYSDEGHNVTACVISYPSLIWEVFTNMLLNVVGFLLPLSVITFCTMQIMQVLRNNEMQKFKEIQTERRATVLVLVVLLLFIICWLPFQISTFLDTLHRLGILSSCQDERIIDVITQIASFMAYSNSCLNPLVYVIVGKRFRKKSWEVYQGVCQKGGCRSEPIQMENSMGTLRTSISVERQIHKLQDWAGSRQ

[2] = DRUGMATRIX: Calcium Channel Type L, Benzothiazepine radioligand binding (ligand: [3H] Diltiazem); type: cell membranes, Rattus norvegicus, Wistar, Brain, Membrane; conditions: Not Active = under 50% inhibition at 10 µM
[3] = molecular target: T3, 5-hydroxytryptamine receptor 2C (Homo sapiens, UniProt P28335); experiment: DRUGMATRIX: Serotonin (5-Hydroxytryptamine) 5-HT2C radioligand binding (ligand: [3H] Mesulergine); type: cell membranes, CHO-K1, Membrane; conditions: Not Active = under 50% inhibition at 10 µM; for Ki: read-out: Ki
T3 sequence (P28335 whole entry): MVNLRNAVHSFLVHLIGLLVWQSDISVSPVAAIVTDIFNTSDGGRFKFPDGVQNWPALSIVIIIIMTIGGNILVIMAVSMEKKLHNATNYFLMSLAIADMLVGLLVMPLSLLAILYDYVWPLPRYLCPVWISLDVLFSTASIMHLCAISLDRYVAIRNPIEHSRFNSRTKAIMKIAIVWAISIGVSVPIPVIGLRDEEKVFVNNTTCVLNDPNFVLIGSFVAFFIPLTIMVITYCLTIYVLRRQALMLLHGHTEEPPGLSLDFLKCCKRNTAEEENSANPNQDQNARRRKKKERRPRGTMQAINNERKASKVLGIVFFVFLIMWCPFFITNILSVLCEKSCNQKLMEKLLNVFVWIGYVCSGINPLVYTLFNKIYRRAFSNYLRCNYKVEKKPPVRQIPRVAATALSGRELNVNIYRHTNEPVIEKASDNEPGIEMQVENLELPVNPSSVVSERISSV

Prostaglandin G/H synthase 1, sequence (P23219 whole entry): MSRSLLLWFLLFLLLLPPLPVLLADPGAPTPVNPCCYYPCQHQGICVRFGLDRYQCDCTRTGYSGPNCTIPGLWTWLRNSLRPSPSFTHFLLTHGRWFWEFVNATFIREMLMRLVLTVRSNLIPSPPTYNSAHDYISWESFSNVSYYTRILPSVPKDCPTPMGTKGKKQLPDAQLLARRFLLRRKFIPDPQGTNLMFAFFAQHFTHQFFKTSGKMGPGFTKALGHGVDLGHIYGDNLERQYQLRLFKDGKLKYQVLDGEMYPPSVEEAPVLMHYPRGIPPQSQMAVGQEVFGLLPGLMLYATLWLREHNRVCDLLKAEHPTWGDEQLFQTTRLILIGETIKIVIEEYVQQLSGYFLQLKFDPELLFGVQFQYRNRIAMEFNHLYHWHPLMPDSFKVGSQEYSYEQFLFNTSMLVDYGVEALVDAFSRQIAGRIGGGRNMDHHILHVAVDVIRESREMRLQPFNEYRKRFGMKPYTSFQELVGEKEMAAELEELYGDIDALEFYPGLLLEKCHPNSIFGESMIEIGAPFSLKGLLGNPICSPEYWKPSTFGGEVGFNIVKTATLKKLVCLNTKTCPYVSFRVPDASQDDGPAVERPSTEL

Structure (SMILES)	IC50 [1]	IC50 (Leukotriene C4 synthase)	IC50 (Cytochrome P450 2D6)	Ki (Cytochrome P450 2D6)	IC50 (B2 bradykinin receptor)	IC50 [2]	Ki [2]	IC50 ([3]; cho-k1)	IC50 ([3]; read-out: IC50) [nM]	Ki [3] [nM]
CC(C)(C#N)c1cc(Cn2cncn2)cc(C(C)(C)C#N)c1 [ANASTROZOLE]	Not Active	Not Active	Not Active	Not Active	Not Active	Not Active	Not Active	Not Active		
CC12CCC(CC1=O)C2(C)C (stereo not drawn) [CAMPHOR]	Not Active	Not Active	Not Active	Not Active	Not Active	Not Active	Not Active	Not Active		
CC12CCC(CC1)C(C)(C)O2 [EUCALYPTOL]	Not Active	Not Active	Not Active	Not Active	Not Active	Not Active	Not Active	Not Active		
Cc1ccnc2c1NC(=O)c1cccnc1N2C1CC1 [NEVIRAPINE]	Not Active	Not Active	Not Active	Not Active	Not Active	Not Active	Not Active	Not Active		
Clc1cc(Cl)c(OCC#CI)cc1Cl [HALOPROGIN]	Not Active	Not Active	Not Active	Not Active	Not Active	Not Active	Not Active		2600	1360
Oc1ccccc1 [PHENOL]	Not Active	Not Active	Not Active	Not Active	Not Active	Not Active	Not Active	Not Active		
CCCCCCNC(=O)n1cc(F)c(=O)[nH]c1=O [CARMOFUR]	Not Active	Not Active			Not Active	Not Active	Not Active	Not Active		
Nc1ccc(C(=O)O)c(O)c1 [AMINOSALICYLIC ACID]	Not Active	Not Active	Not Active	Not Active	Not Active	Not Active	Not Active	Not Active		
COc1cc(NC(C)CCCN)c2ncccc2c1 (stereo not drawn) [PRIMAQUINE]	Not Active	Not Active	Not Active	Not Active	Not Active	Not Active	Not Active	Not Active		
Cc1cc(C(C)(C)C)c(O)c(C)c1CC1=NCCN1 [OXYMETAZOLINE]	Not Active	Not Active			Not Active	Not Active	Not Active		578	303
O=c1[nH]cnc2c1ncn2[C@H]1CC[C@@H](CO)O1 [DIDANOSINE]	Not Active	Not Active	Not Active	Not Active	Not Active	Not Active	Not Active	Not Active		
CC(=O)[C@]1(O)Cc2c(O)c3c(c(O)c2[C@@H](O[C@H]2C[C@H](N)[C@H](O)[C@H](C)O2)C1)C(=O)c1ccccc1C3=O [IDARUBICIN]	Not Active	Not Active	Not Active	Not Active	Not Active	Not Active	Not Active	Not Active		
COC(=O)Nc1nc2ccc(Sc3ccccc3)cc2[nH]1 [FENBENDAZOLE]	Not Active	Not Active	Not Active	Not Active	Not Active	Not Active	Not Active	Not Active		
CC(C)(c1ccc(O)cc1)c1ccc(O)cc1 [BISPHENOL A]	Not Active	Not Active	Not Active	Not Active	Not Active	Not Active	Not Active	Not Active		
C=C(Cl)Cl [1,1-DICHLOROETHENE]	Not Active	Not Active	Not Active	Not Active	Not Active	Not Active	Not Active	Not Active		
